Source: EP1202724B1, “METHOD FOR TREATING CHRONIC PAIN USING MEK INHIBITORS” (WARNER-LAMBERT COMPANY, priority 1999, dated 2001)
“Also recorded” adds a separate entry of the source.

Key:
APK = APK IC50; assay type: biochemical
MEK = experiment: affinity (binding affinities) of the MEK inhibitors; settings: affinity of the MEK inhibitors tested in the CCI model
[1] = tested on: CCI-induced static allodynia; experiment: static allodynia in CCI animals after intrathecal administration of other MEK inhibitors (Biological Example 3); assay type: in vivo, rat; settings: for magnitude of the antiallodynic effect: intrathecal, 30µg of PD 184352 compared with 100µg of pregabalin
From the text: (§1) Animals were anaesthetised with 2% isoflurane 1:4 O2/N2O mixture maintained during surgery via a nose cone. The sciatic nerve was ligated as previously described by Bennett and Xie, 1988. Animals were placed on a homeothermic blanket for the duration of the procedure. After surgical preparation the common sciatic nerve was exposed at the middle of the thigh by blunt dissection through biceps femoris. Proximal to the sciatic trifurcation, about 7mm of nerve was freed of adhering tissue and 4 ligatures (4-0 silk) were tied loosely around it with about 1mm spacing. The incision was closed in layers and the wound treated with topical antibiotics.
(§2) PD 198306 and pregabalin were administered intrathecally in a volume of 10 µl using a 100 µl Hamilton syringe by exposing the spine of the rats under brief isoflurane anaesthesia. Injections were made into the intrathecal space between lumbar region 5-6 with a 10 mm long 27 gauge needle. Penetrations were judged successful if there was a tail flick response. The wound was sealed with an autoclip and rats appeared fully awake within 2-3 min following injection.
(§3) Mechanical hypersensitivity was measured using Semmes-Weinstein von Frey hairs (Stoelting, Illinois, U.S.A.). Animals were placed into wire mesh bottom cages allowing access to the underside of their paws. Animals were habituated to this environment prior to the start of the experiment. Mechanical hypersensitivity was tested by touching the plantar surface of the animals right hind paw with von Frey hairs in ascending order of force ( 0.7, 1.2, 1.5, 2, 3.6, 5.5, 8.5, 11.8, 15.1 and 29g) for up to 6sec. Once a withdrawal response was established, the paw was re-tested, starting with the next descending von Frey hair until no response occurred. The highest force of 29g lifted the paw as well as eliciting a response, thus represented the cut off point. The lowest amount of force required to elicit a response was recorded as the paw withdrawal threshold (PWT) in grams.
The animals and methods for developing chronic constriction injury in the rat, injecting test compounds, and evaluation of static allodynia were according to Example 2 above. […] Static allodynia was assessed with von Frey hairs, before (baseline, BL) and 0.5h, 1h and 2h after intrathecal administration of the compounds
Pregabalin was dissolved in water. All compounds were administered intrathecally in a 10µl volume.
(§4) Data were analysed using a Kruskall-Wallis ANOVA for non-parametric results, followed when significant by Mann-Whitney's t test vs vehicle group.

[2] = tested on: streptozocin-induced static allodynia; experiment: streptozocin-induced static allodynia, von Frey hairs, oral administration (Biological Example 1); assay type: in vivo, rat
Method: Male Sprague Dawley rats (250-300g), obtained from Bantin and Kingman, (Hull, U.K.) were housed in groups of 3. All animals were kept under a 12h light/dark cycle (lights on at 07h 00min) with food and water ad libitum. All experiments were carried out by an observer blind to drug treatments.
Diabetes was induced in rats by a single i.p. injection of streptozocin (50 mg/kg) as described previously (Courteix et al., 1993).
as §3, with “to 6 sec.” for “to 6sec.”, “of 29 g” for “of 29g”
PD 198306 [N-Cyclopropylmethoxy-3,4,5-trifluoro-2-(4-iodo-2-methylphenylamino)-benzamide] and Cl-1008 (pregabalin) were synthesized at Parke-Davis (Ann Arbor, Ml, USA). PD 198306 was suspended in cremophor:ethanol:water (1:1:8) vehicle. Pregabalin was dissolved in water. Both compounds were administered orally. Streptozocin (Aldrich, UK) was dissolved in 0.9% w/v NaCI and administered intraperitoneally. Drug administrations were made in a volume of 1 ml/kg.
The static allodynia data were analysed using a Kruskall-Wallis ANOVA for non-parametric results, followed when significant by Mann-Whitney's t test.
Static allodynia was assessed with von Frey hairs, before (baseline, BL) and 1h after oral administration of PD 198306 (30mg/kg, p.o.), vehicle (cremophor:ethanol:water, 1:1:8) or pregabalin (30mg/kg, p.o.) (test). Animals were administered again the same compounds on the following day, both in the morning and the afternoon. Static allodynia was assessed only before and 1h after the afternoon administration, in order to minimise the habituation of the animals to the testing conditions. Animals treated with pregabalin received water in the morning administration, in order to avoid the potential development of tolerance to the compound with repeated administration.

[3] = tested on: CCI-induced static allodynia; experiment: CCI-induced static allodynia (chronic constriction injury of the sciatic nerve), von Frey hairs (Biological Example 2); assay type: in vivo, rat
Method: (§5) Male Sprague Dawley rats (250-300g), obtained from Charles River, Margate, U.K.) were housed in groups of 3-6. All animals were kept under a 12h light/dark cycle (lights on at 07h 00min) with food and water ad libitum. All experiments were carried out by an observer blind to drug treatments.
as §1, §2, §3
(§6) Static allodynia was assessed with von Frey hairs, before (baseline, BL) and 0.5h, 1h and 2h after intrathecal or intraplantar administration of PD 198306 (1-30µg, i.t.), vehicle (cremophor:ethanol:water, 1:1:8) or pregabalin (10µg, i.t). For oral administration experiments, static allodynia was assessed with von Frey hairs, before (baseline, BL) and 1h after oral administration of PD 198306 (3-30mg/kg, p.o.), vehicle (cremophor:ethanol:water, 1:1:8) or pregabalin (30mg/kg, p.o.). Animals were administered again the same compounds on the following day, both in the morning and the afternoon. Static allodynia was assessed before and 1h after the morning administration. In the afternoon static allodynia was assessed before, 1h, 2h and 3h after administration for streptozocin treated animals. CCI animals were assessed before, 1h and 2h after administration
(§7) PD 198306 and pregabalin were synthesised at Parke-Davis (Ann Arbor, Ml, USA). PD 198306 was suspended in cremophor:ethanol:water (1:1:8) vehicle. Pregabalin was dissolved in water. Both compounds were administered orally, intrathecally or intraplantar in volumes of 1ml/kg, 10µl and 100µl respectively. Streptozocin (Aldrich, UK) was dissolved in 0.9% w/v NaCl and administered intraperitoneally in a volume of 1ml/kg.
as §4

[4] = tested on: streptozocin-induced static allodynia; experiment: streptozocin-induced static allodynia, von Frey hairs, oral, intrathecal or intraplantar administration (Biological Example 2); assay type: in vivo, rat
Method: as §5
Diabetes was induced in rats by a single i.p. injection of streptozocin (50mg/kg) as described previously (Courteix et al., 1993).
as §2, §3, §6, §7, §4

[5] = single administration 30mg/kg p.o., 1h after administration
[6] = intrathecal, streptozocin animals

O=C(O)c1cc([N+](=O)[O-])c(Nc2ccc(I)cc2Cl)c(F)c1Nc1ccc(I)cc1Cl [2,4-bis-(2-chloro-4-iodo-phenylamino)-3-fluoro-5-nitrobenzoic acid]
IC50 (APK): 29.6 nM

COC(=O)c1cc(S(=O)(=O)N(C)C)c(F)c(F)c1Nc1ccc(I)cc1Cl [2-(2-chloro-4-iodo-phenylamino)-5-dimethylsulfamoyl-3,4-difluoro-benzoic acid methyl ester]
IC50 (APK): 222 nM

NS(=O)(=O)c1cc(C(=O)NOCC2CC2)c(Nc2ccc(I)cc2Cl)c(F)c1F [PD219622, 2-(2-chloro-4-iodo-phenylamino)-N-cyclopropylmethoxy-3,4-difluoro-5-sulfamoyl-benzamide]
IC50 (MEK): 100 nM | effect on static allodynia ([1]; intrathecal 30µg): had no significant effect

O=C(NOCC1CC1)c1ccc(F)c(F)c1Nc1ccc(I)cc1Cl [PD 184352]
duration of antiallodynic effect post-injection ([1]; intrathecal 30µg): 30 min | effect on static allodynia ([1]; intrathecal 30µg): blocked the maintenance of static allodynia | magnitude of the antiallodynic effect [1]: similar

Cc1cc(I)ccc1Nc1c(C(=O)NOCC2CC2)cc(F)c(F)c1F [PD 198306, N-Cyclopropylmethoxy-3,4,5-trifluoro-2-(4-iodo-2-methylphenylamino)-benzamide]
streptozocin-induced static allodynia ([2]; 30mg/kg p.o., 1h after the third administration (administered twice more on the following day)): significantly blocked | persistence of the effects on streptozocin-induced static allodynia ([2]; 30mg/kg p.o., day after the third administration): had disappeared by the following day | streptozocin-induced static allodynia [2, 5]: had no effect | CCI-induced static allodynia ([3]; 3-30mg/kg p.o., single or multiple administration): had no effect; also recorded: neither a single or multiple administration of PD 198306 (3-30mg/kg, p.o) had any effect | static allodynia ([3]; intraplantar 3mg/100µl, CCI animals): had no effect | maintenance of static allodynia ([3]; intrathecal 30µg (highest dose), CCI animals): totally blocked; also recorded: significantly blocked | maintenance of static allodynia ([3]; intrathecal 1-30µg, CCI animals): dose-dependently blocked | duration of antiallodynic effect ([3]; intrathecal, CCI animals): up to 1 h | minimum effective dose (MED) ([3]; intrathecal, CCI animals): 10 µg | duration of antiallodynic effect ([3]; intrathecal, CCI animals, listed as PD198306): 1 h | duration of block of streptozocin-induced static allodynia ([4]; 30mg/kg p.o., after the third administration): 2 h | static allodynia ([4]; intraplantar 3mg/100µl, streptozocin animals): had no effect | maintenance of static allodynia ([4]; intrathecal 30µg (highest dose), streptozocin animals): totally blocked; also recorded: significantly blocked | maintenance of static allodynia ([4]; intrathecal 1-30µg, streptozocin animals): dose-dependently blocked | duration of antiallodynic effect [4, 6]: up to 1 h | minimum effective dose (MED) [4, 6]: 3 µg | duration of antiallodynic effect ([4]; intrathecal, streptozocin animals, listed as PD198306): 1 h | streptozocin-induced static allodynia ([4]; p.o., 30mg/kg, after the third administration (3 doses over two days), 30 mg/kg): transient effect; also recorded: significantly blocked | streptozocin-induced static allodynia ([4]; single administration 3-30mg/kg p.o., 1h after administration): had no effect

O=S(=O)(NOCC1CC1)c1ccc(F)c(F)c1Nc1ccc(I)cc1Cl [PD 0297447, 2-(2-Chloro-4-iodo-phenylamino)-N-cyclopropylmethoxy-3,4-difluoro-benzenesulfonamide]
IC50 (MEK): 965 nM | IC50 (APK): 965 nM | effect on static allodynia ([1]; intrathecal 30µg): had no significant effect

CC(C)C[C@H](CN)CC(=O)O [pregabalin, reference compound]
streptozocin-induced static allodynia [2, 5]: significantly blocked | CCI-induced static allodynia [3, 5]: significantly blocked | magnitude of the antiallodynic effect [1]: similar | streptozocin-induced static allodynia [4, 5]: significantly blocked
